Values of other authors as cited in patent publication US6415234B1, “Designing inhibitors for glycosyltransferases” (Glyco Design Inc., priority 1998, dated 2002).

Details: polarised continuum model

O=P(O)(O)OP(=O)(O)O [pyrophosphate dianion]
solvation free energy in water: -195.8 kcal/mol
